For assay [1], the target named is T1, F175Y/Y177F variant (YGF) of zebrafish α1 GlyR (Danio rerio, UniProt O93430, F183Y/Y185F).
T1 sequence (O93430 25-444 F183Y/Y185F): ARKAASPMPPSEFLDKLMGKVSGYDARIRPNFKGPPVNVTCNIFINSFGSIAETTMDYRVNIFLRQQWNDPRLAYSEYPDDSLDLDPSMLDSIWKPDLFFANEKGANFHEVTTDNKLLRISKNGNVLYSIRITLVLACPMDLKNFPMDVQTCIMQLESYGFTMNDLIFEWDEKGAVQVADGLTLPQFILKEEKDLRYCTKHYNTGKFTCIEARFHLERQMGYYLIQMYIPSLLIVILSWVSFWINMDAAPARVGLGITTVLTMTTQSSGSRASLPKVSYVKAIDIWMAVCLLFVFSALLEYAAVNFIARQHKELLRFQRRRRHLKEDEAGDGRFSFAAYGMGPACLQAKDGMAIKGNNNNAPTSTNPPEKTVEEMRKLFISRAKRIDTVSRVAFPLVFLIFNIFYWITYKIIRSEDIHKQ
The assay is described as follows: Cell-attached single-channel recording, cluster open probability, YGF mutant. In kind it is cell-based. To be noted: HEK293A cells, single-channel clusters, 100 mM GABA.

The target of assay [2] is T2, Full-length zebrafish α1 GlyR (Danio rerio, UniProt O93430).
T2 sequence (O93430 25-444): T1 sequence (O93430 25-444 F183Y/Y185F) with Y159F, F161Y
The assay is described as follows: Whole cell dose-response, FL GlyR. The format is cell-based.

In assay [3] the target is T3, FL receptor (full-length zebrafish α1 glycine receptor) (Danio rerio, UniProt O93430).
T3 sequence (O93430 25-444): T1 sequence (O93430 25-444 F183Y/Y185F) with Y159F, F161Y
The assay is described as follows: Ligand binding with 3H-strychnine by SPA, FL receptor in SMA.

The target in assay [4] is T4, YGF mutant of zebrafish α1 glycine receptor (Danio rerio, UniProt O93430, F183Y/Y185F).
T4 sequence (O93430 25-444 F183Y/Y185F): T1 sequence (O93430 25-444 F183Y/Y185F)
The assay is described as follows: Ligand binding with 3H-strychnine by SPA, YGF mutant in SMA.

Assay [5] concerns the target T5, YYY mutant (F115Y/F175Y/F223Y) of GlyR (Danio rerio, UniProt O93430, F123Y/F183Y/F231Y).
T5 sequence (O93430 25-444 F123Y/F183Y/F231Y): T1 sequence (O93430 25-444 F183Y/Y185F) with F99Y, F161Y, F207Y
The assay is described as follows: Single-channel open probability, YYY mutant. In kind it is cell-based, zebrafish. To be noted: 100 mM GABA; similar Po in the YYY mutant as in the FL receptor.

Assay [6] has as its target T1, F175Y/Y177F variant (YGF) of zebrafish α1 GlyR. The assay is described as follows: Whole cell dose-response, YGF mutant. The format is cell-based. To be noted: HEK293A, ± SEM, n≥6 cells.
In assay [7] the test system is GlyR Ser294 to cysteine mutant. To be noted: S294C vs wild type; ref Lynch et al., 2001; cited from earlier work.
Assay [8] deals with T2, Full-length zebrafish α1 GlyR. The assay is described as follows: Macroscopic currents in outside-out patches, fast agonist application.

Substitutions are numbered along the chain they refer to. Read-outs that look alike come from different tables or passages of the source.

As a reminder, the EC50 is the concentration needed to bring the measured effect to its halfway point. Usually Ki stands for the equilibrium dissociation constant of an inhibitor or competing ligand from its target. Higher therefore signals a looser hold on the target. For `NCCCC(=O)O` [GABA, γ-amino butyric acid], in assay [1], the Po turned out to be 92 ± 2%. In addition, the concentration giving a half-maximal response (EC50) in assay [2] was found to be 28400 ± 900 µM. Also, the Ki came out at 1410 ± 940 µM in assay [3] and 180 ± 70 µM in assay [4]. Besides, the “agonist efficacy (Po) in YYY mutant compared with FL receptor” value in assay [5] is “remained a weak partial agonist”.

On to `NCC(=O)O` [glycine], for which the EC50 in assay [2] (FL GlyR, whole cell, HEK293A, -40 mV, ± SEM, n≥6 cells) stood at 190 ± 20 µM; in assay [6], 33 ± 3 µM. Further, the “increase of glycine EC50 by mutation of Ser294 to cysteine” value in assay [7] is given as ~ 5 fold. Also, the “current left at the end of the 1-s pulse, range over patches” value in assay [8] (10 mM glycine, 8 patches) is on record as 17–89%. Moreover, the “current left at the end of the 1-s pulse, patch shown” value in assay [8] (10 mM glycine, single outside-out patch of Figure S1A) stood at 17%. The “current left, % of peak, after 1 s application (desensitization), average” value in assay [8] (saturating (10 mM) glycine, outside-out patches, n=8 patches) turned out to be 57 ± 8%.

Regarding `NCCS(=O)(=O)O` [taurine], the Po in assay [1] turned out to be 95 ± 5%. The molecule further yielded an EC50 in assay [2] of 1050 ± 80 µM.

The values are drawn from publication PMC8115384 (Cell, 2021).
